Marks after values point to notes of the source that are not given here.
Tests used:
CYP2E1 = assay: p-Nitrophenol 6-hydroxylation in liver microsomes of treated rats; assay type: in vivo; conditions: rat liver microsomes; oral 2 g/kg APE or 50 mg/kg AND daily for 5 days
Procedure: (§1) Liver was homogenized (1 : 4, w/v) in an ice-cold potassium phosphate buffer (pH 7.4) containing 7.4 mM K2HPO4, 2.6 mM KH2PO4, 1.15% KCl, and 1 mM phenylmethylsulfonyl fluoride (PMSF). Tissue homogenates were centrifuged at 10,000 ×g for 30 min at 4°C. The resulting supernatant was then centrifuged at 105,000 ×g for 1 h at 4°C. The microsomes thus obtained were washed several times to get rid of possible tolbutamide contamination and this can avoid tolbutamide interference of CYP activity, and the microsomes were then suspended in potassium phosphate buffer (pH 7.7) containing 7.5 mM K2HPO4, 14.5 mM KH2PO4, and 1 mM EDTA. […] Metabolites of each CYP enzyme reaction were determined by LC/MS as reported previously. The contents of total CYP and cytochrome b5 were quantified by the method of Omura and Sato [29]. Enzyme activity is expressed as picomoles of metabolite formed per minute per milligram of protein. The NADPH-CYP reductase activity was measured as described by Phillips and Langdon with the use of cytochrome c as the substrate. The microsomal protein concentration was determined by using a Coomassie Plus protein assay kit (Pierce, Rockford, IL, USA).

CYP4A = assay: Lauric acid 12-hydroxylation in liver microsomes of treated rats; assay type: in vivo; conditions: rat liver microsomes; oral 2 g/kg APE or 50 mg/kg AND daily for 5 days
Procedure: as §1

Cytochrome P450 = assay: Total CYP content in liver microsomes of treated rats; assay type: in vivo; conditions: rat liver microsomes; oral 2 g/kg APE or 50 mg/kg AND daily for 5 days
Procedure: as §1

CYP1A1 = assay: Ethoxyresorufin O-deethylation in liver microsomes of treated rats; assay type: in vivo; conditions: rat liver microsomes; oral 2 g/kg APE or 50 mg/kg AND daily for 5 days
Procedure: as §1

[1] = Rat growth: body weight and liver weight after 5 days of daily oral dosing; assay type: in vivo, Sprague-Dawley rats; conditions: rats, oral 2 g/kg APE or 50 mg/kg AND daily for 5 days
Procedure: Seven-week-old male Sprague-Dawley rats cannulated in the jugular vein were purchased from the Bio LASCO Experimental Animal Center (Taipei, Taiwan). The animals were fed a standard rat diet and were randomly assigned into control, APE-treated, and andrographolide-treated groups (n = 5). Rats were housed in plastic cages in a room kept at 23 ± 1°C and 60 ± 5% relative humidity with a 12-hour light and dark cycle. Food and drinking water were available ad libitum. Control rats were orally administered methyl cellulose. […] After the 5th daily dose, rats were deprived of food overnight. On day 6, a 20 mg/kg oral dose of tolbutamide, as a solution in Cremophor EL (polyoxyl 35 hydrogenated castor oil, Sigma)/ethanol/water (30/10/60, v/v/v), was administered to each rat. After the administration of tolbutamide, serial blood samples were collected up to 12 h after dosing from each rat. The animals were then killed by exsanguination, and the livers were collected.
All animals were killed by exsanguination via the abdominal aorta while under carbon dioxide (CO2/O2, 70%/30%) anesthesia. Heparin was used as the anticoagulant. Plasma was separated from the blood by centrifugation (1750 ×g) at 4°C for 20 min. The liver from each animal was excised, weighed, and stored at −80°C. This research has received ethical approval from the institutional animal ethics committee of China Medical University, Taichung, Taiwan.

CYP3A = assay: Testosterone 6β-hydroxylation in liver microsomes of treated rats; assay type: in vivo; conditions: rat liver microsomes; oral 2 g/kg APE or 50 mg/kg AND daily for 5 days
Procedure: as §1

With C=C1CC[C@@H]2[C@](C)(CO)[C@H](O)CC[C@@]2(C)[C@@H]1C/C=C1/C(=O)OC[C@H]1O [andrographolide, Andrographolide] the “p-Nitrophenol 6-hydroxylase (2E1)” value (CYP2E1) was 91.1 ± 13.0^b pmol/min/mg protein, the “Lauric acid 12-hydroxylase (4A)” value (CYP4A) was 214 ± 88 pmol/min/mg protein and the “Cytochrome P450 content” value (Cytochrome P450) was 674 ± 64^b pmol/mg protein. For the same molecule, the “Ethoxyresorufin O-deethylase (1A1)” value (CYP1A1) was 66.6 ± 13.5^b pmol/min/mg protein, the Relative liver weight ([1]; (liver weight/body weight) × 100) was 3.8 ± 0.3% and the “Body weight, Final” value ([1]; mean ± SD, n = 5) was 332 ± 13^a g. The Liver weight ([1]; mean ± SD, n = 5) was 12.8 ± 1.5 g and the “Testosterone 6β-hydroxylase (3A)” value (CYP3A) was 1195 ± 284^b pmol/min/mg protein.

Source: publication PMC3753754, “Andrographis paniculata Extract and Andrographolide Modulate the Hepatic Drug Metabolism System and Plasma Tolbutamide Concentrations in Rats” (Evidence-based Complementary and Alternative Medicine : eCAM, 2013)
